Assay results taken from patent publication US8877775B2, “Substituted 2-aza-bicyclo[2.2.2]octane-3-carboxylic acid (benzyl-cyano-methyl)-amides inhibitors of cathepsin C” (Boehringer Ingelheim International GmbH, priority 2013, dated 2014).

Experiments:
[1] = biological target: recombinant human DPPI (Cathepsin C) (Homo sapiens (Human), UniProt P53634); assay: Inhibition of human DPPI (Cathepsin C); format: biochemical; settings: substrate Gly-Arg-AMC 50 μM, 30 min, room temperature
From the text: Inhibition of Human DPPI (Cathepsin C)
Materials: Microtiterplates (Optiplate-384 F) were purchased from PerkinElmer (Prod. No. 6007270). The substrate Gly-Arg-AMC was from Biotrend (Prod.-No. 808756 Custom peptide). Bovine serum albumin (BSA; Prod. No. A3059) and Dithiothreitol (DTT; Prod. No D0632) were from Sigma. TagZyme buffer was from Riedel-de-Haen (Prod.-No. 04269), NaCl was from Merck (Prod.-No. 1.06404.1000) and morpholinoethane sulfonic acid (MES), was from Serva (Prod.-No. 29834). The DPP1 inhibitor Gly-Phe-DMK was purchased from MP Biomedicals (Prod.-No. 03DK00625). The recombinant human DPPI was purchased from Prozymex. All other materials were of highest grade commercially available.
The following buffers were used: MES buffer: 25 mM MES, 50 mM NaCl, 5 mM DTT, adjusted to pH 6.0, containing 0.1% BSA; TAGZyme Buffer: 20 mM NaH2PO4, 150 mM NaCl adjusted to pH 6.0 with HCl
The recombinant human DPPI was diluted in TAGZyme buffer to 1 U/ml (38.1 μg/ml, respectively), and then activated by mixing in a 1:2 ratio with a Cysteamine aqueous solution (2 mM) and incubating for 5 min at room temperature.
Five uL test compound (final concentration 0.1 nM to 100 μM) in aqua bidest (containing 4% DMSO, final DMSO concentration 1%) were mixed with 10 μL of DPPI in MES buffer (final concentration 0.0125 ng/μL) and incubated for 10 min. Then, 5 μL of substrate in MES buffer (final concentration 50 μM) were added. The microtiter plates were then incubated at room temperature for 30 min. Then, the reaction was stopped by adding 10 μL of Gly-Phe-DMK in MES-buffer (final concentration 1 μM). The fluorescence in the wells was determined using a Molecular Devices SpectraMax M5 Fluorescence Reader (Ex 360 nm, Em 460 nm) or an Envision Fluorescence Reader (Ex 355 nm, Em 460 nm).
The analysis of the data was performed by calculating the percentage of fluorescence in the presence of test compound in comparison to the fluorescence of the vehicle control after subtracting the background fluorescence using the following formula: (RFU(sample)−RFU(background))*100/(RFU(control)−RFU(background))
Data from these calculations were used to generate IC50 values for inhibition of DPPI, respectively.

[2] = biological target: recombinant human Cathepsin K (Homo sapiens (Human), UniProt P43235); assay: Inhibition of human Cathepsin K; format: biochemical; settings: substrate Z-Gly-Pro-Arg-AMC 12.5 μM, 60 min, room temperature
Sequence of recombinant human Cathepsin K (P43235 115-329): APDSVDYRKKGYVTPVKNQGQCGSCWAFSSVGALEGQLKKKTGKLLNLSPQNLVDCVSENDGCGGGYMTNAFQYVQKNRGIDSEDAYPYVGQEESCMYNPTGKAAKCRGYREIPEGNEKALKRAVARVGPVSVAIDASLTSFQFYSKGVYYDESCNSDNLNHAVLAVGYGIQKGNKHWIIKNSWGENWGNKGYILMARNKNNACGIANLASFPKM
From the text: Inhibition of Human Cathepsin K
Materials: Microtiterplates (Optiplate-384 F were purchased from PerkinElmer (Prod. No. 6007270). The substrate Z-Gly-Pro-Arg-AMC was from Biomol (Prod.-No. P-142). L-Cysteine (Prod. No. 168149) was from Sigma. Sodium actetate was from Merck (Prod.-No. 6268.0250), EDTA was from Fluka (Prod.-No. 03680). The inhibitor E-64 was purchased from Sigma (Prod.-No. E3132). The recombinant human Cathepsin K proenzyme was purchased from Biomol (Prod. No. SE-367). All other materials were of highest grade commercially available.
The following buffers were used: Activation buffer: 32.5 mM sodium acetate, adjusted to pH 3.5 with HCl; Assay buffer: 150 mM sodium acetate, 4 mM EDTA, 20 mM L-Cysteine, adjusted to pH 5.5 with HCl,
To activate the proenzyme, 5 μl procathepsin K were mixed with 1 ul activation buffer, and incubated at room temperature for 30 min.
5 μL test compound (final concentration 0.1 nM to 100 μM) in aqua bidest (containing 4% DMSO, final DMSO concentration 1%) were mixed with 10 uL of Cathepsin K in assay buffer (final concentration 2 ng/μL) and incubated for 10 min. Then 5 μL of substrate in assay buffer (final concentration 12.5 μM) were added. The plates were then incubated at room temperature for is 60 min. Then, the reaction was stopped by adding 10 μL of E64 in assay buffer (final concentration 1 μM). The fluorescence in the wells was determined using a Molecular Devices SpectraMax M5 Fluorescence Reader (Ex 360 nm, Em 460 nm).
Each assay microtiter plate contains wells with vehicle controls (1% DMSO in bidest) as reference for non-inhibited enzyme activity (100% Ctl; high values) and wells with inhibitor (E64 in bidest+1% DMSO, final concentration 1 μM) as controls for background fluorescence (0% Ctl; low values). The analysis of the data was performed by calculating the percentage of fluorescence in the presence of test compound in comparison to the fluorescence of the vehicle control after subtracting the background fluorescence: (RFU(sample)−RFU(background))*100/(RFU(control)−RFU(background))
Data from these calculations were used to generate IC50 values for inhibition of Cathepsin K, respectively.

Sequence of recombinant human DPPI (Cathepsin C) (P53634 231-394): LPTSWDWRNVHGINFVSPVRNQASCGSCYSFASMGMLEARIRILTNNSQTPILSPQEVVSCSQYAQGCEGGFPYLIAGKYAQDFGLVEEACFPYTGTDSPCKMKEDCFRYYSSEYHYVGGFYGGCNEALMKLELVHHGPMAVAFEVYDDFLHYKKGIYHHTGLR
Sequence of recombinant human DPPI (Cathepsin C) (P53634 395-463): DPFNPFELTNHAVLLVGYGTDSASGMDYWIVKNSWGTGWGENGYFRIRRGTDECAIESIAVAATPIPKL
Sequence of recombinant human DPPI (Cathepsin C) (P53634 25-134): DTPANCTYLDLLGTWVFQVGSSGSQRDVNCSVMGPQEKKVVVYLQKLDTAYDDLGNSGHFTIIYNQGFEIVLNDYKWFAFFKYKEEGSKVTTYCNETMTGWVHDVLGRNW

SMILES | IC50 [1] | IC50 [2]
N#C[C@H](Cc1ccc(-c2ccc3c(c2)NC(=O)C3)cc1)NC(=O)[C@H]1NC2CCC1CC2 [Example 2, (2S)—N-[(1S)-cyano-2-[4-(2-oxoindolin-6-yl)phenyl]ethyl]-3-azabicyclo[2.2.2]octane-2-carboxamide] | 50.1 nM | 4200 nM
CN1C(=O)Cc2ccc(-c3ccc(C[C@@H](C#N)NC(=O)[C@H]4N[C@H]5CC[C@@H]4CC5)cc3)cc21 [Example 4] | 32.2 nM | 6300 nM
N#Cc1ccc(-c2ccc(C[C@@H](C#N)NC(=O)[C@H]3N[C@H]4CC[C@@H]3CC4)cc2)cc1F [Example 7, (2S)—N-[(1S)-1-cyano-2-[4-(4-cyano-3-fluoro-phenyl)phenyl]ethyl]-3-azabicyclo[2.2.2]octane-2-carboxamide] | 66.4 nM | 5700 nM
CS(=O)(=O)c1cc(-c2ccc(C[C@@H](C#N)NC(=O)[C@H]3NC4CCC3CC4)cc2)ccc1C#N [Example 8] | 70.2 nM | 5300 nM
CS(=O)(=O)c1cccc(-c2ccc(C[C@@H](C#N)NC(=O)[C@H]3NC4CCC3CC4)cc2)c1 [Example 10] | 73.5 nM | 5300 nM
N#C[C@H](Cc1ccc(-c2ccc3c(c2)CNC3=O)cc1)NC(=O)[C@H]1NC2CCC1CC2 [Example 11] | 86.7 nM | 11000 nM
CS(=O)(=O)Nc1cccc(-c2ccc(C[C@@H](C#N)NC(=O)[C@H]3NC4CCC3CC4)cc2)c1 [Example 12] | 97.4 nM | 9900 nM
